The values that follow come from patent US12331033B2, “Inhibitors of SARM1” (Disarm Therapeutics, Inc., priority 2020, dated 2025).

pIC50: −log10 of the molar value.

Sequence of SARM1 (ARM-SAM-TIR) (Q6SZW1 other isoform, or with tags, fused parts or gaps): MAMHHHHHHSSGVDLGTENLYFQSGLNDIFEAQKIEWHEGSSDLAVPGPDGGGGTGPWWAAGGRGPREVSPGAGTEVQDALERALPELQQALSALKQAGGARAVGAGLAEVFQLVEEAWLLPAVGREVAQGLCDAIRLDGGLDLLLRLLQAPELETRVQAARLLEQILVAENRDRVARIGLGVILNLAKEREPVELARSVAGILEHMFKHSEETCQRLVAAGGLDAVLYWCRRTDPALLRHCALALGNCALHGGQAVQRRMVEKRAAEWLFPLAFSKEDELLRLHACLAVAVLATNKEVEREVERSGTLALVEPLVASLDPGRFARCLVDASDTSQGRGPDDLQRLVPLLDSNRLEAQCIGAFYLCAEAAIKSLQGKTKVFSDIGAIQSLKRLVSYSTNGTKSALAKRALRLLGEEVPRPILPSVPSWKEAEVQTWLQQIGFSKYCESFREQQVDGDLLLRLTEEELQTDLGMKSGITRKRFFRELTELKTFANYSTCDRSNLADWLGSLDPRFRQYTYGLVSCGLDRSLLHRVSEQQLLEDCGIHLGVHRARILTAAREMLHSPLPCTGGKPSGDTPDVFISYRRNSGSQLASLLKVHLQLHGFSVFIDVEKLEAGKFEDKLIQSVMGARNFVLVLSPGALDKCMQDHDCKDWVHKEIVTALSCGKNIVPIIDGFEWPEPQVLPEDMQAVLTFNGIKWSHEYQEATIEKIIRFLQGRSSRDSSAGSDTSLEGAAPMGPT

The assay concerns the target SARM1 (ARM-SAM-TIR) (Homo sapiens (Human), UniProt Q6SZW1). Put plainly: ARM-SAM-TIR SARM1 IC50 assay (NADase activity, NAD+ cleavage, RapidFire MS). Format: biochemical. To be noted: ARM-SAM-TIR lysate 5 μg/mL, 2 h pre-incubation, 5 μM NAD+, 2 hr room temperature. In outline:
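Lysate of NRK1-HEK293T cells transfected with full-length ARM-SAM-TIR SARM1 (5 μg/mL final) pre-incubated with compound (1% DMSO) 2 h at room temperature in Dulbecco's PBS. Reaction started with 5 μM NAD+, run 2 hr at room temperature, then stopped with TCA/acetonitrile. NAD+ and ADPR quantified by RapidFire MS.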
As a reminder, the pIC50 is the IC50 on a negative log10 scale, so that one unit is a factor of ten. The low end stands for a large IC50, the high end for a small IC50. Compound `Cc1c(-c2ccncc2)n[nH]c1NC(=O)[C@H](O)Cc1ccc(Cl)cc1` [Example 289] had a pIC50 greater than 5.30. Next, `NC(=O)c1cnccc1-c1nnc(NC(=O)CCc2ccc(Cl)cc2)[nH]1` [Example 286]: greater than 5.30. In turn, `Cc1c(-c2ccncc2)n[nH]c1NC(=O)c1ccc(OC2CCC2)cc1` [Example 255] had a pIC50 of 4.82 to 5.30. Next, `CC(C)(CC(=O)Nc1nnc(-c2ccncc2)[nH]1)c1ccccc1` [Example 121]: 4.52 to 4.82. For the compound `N#Cc1c(-c2ccncc2F)n[nH]c1NC(=O)CCc1ccc(Cl)nc1` [Example 281], the pIC50 is greater than 5.30. Next, `[2H]C([2H])([2H])c1c(-c2ccncc2)n[nH]c1NC(=O)CCc1ccc(Cl)nc1` [Example 282]: greater than 5.30; `O=C(CCc1ccc(Cl)cc1)Nc1nnc(-c2ccncc2)s1` [Example 115]: less than 4.52; `O=C(Nc1nnc(-c2ccncc2)[nH]1)C1Cc2ccccc2C1` [Example 116]: 4.82 to 5.30.

In the case of `O=C(CCc1cccc(Cl)c1)Nc1nnc(-c2ccncc2)[nH]1` [Example 137], the pIC50 was greater than 5.30. For the compound `Cc1c(-c2ccncc2)n[nH]c1NC(=O)CC1Cc2ccccc2C1` [Example 199], the pIC50 was 4.82 to 5.30. Next, `O=C(CCc1ccc(Cl)cc1)Nc1[nH]nc(-c2ccncc2)c1Br` [Example 167]: greater than 5.30; `O=C(Nc1nnc(-c2ccncc2)[nH]1)NC1CCOc2cc(Cl)ccc21` (stereo not drawn) [Example 183]: 4.82 to 5.30; `Cc1c(-c2ccncc2)n[nH]c1NC(=O)c1ccc(OCC2CC2)cc1` [Example 252]: 4.82 to 5.30. As to `N#Cc1c(-c2ccncc2)n[nH]c1NC(=O)CCc1ccc(Cl)cc1` [Example 186], the pIC50 is greater than 5.30. In turn, `COc1ccccc1CCC(=O)Nc1nnc(-c2ccncc2)[nH]1` [Example 107] had a pIC50 greater than 5.30. Next, `O=C(CCc1ccc(F)cc1)Nc1nnc(-c2ccncc2)[nH]1` [Example 125]: greater than 5.30; `O=C(CCc1ccc(Cl)cc1)Nc1cc(-c2ccncc2)cnc1O` [Example 51]: less than 4.52.

In turn, `Cc1cnccc1-c1cc(NC(=O)CCc2ccc(Cl)cc2)[nH]n1` [Example 198] gave a pIC50 greater than 5.30. Next, `N#Cc1c(-c2ccncc2)c[nH]c1NC(=O)CCc1ccc(Cl)nc1` [Example 211]: greater than 5.30; `CS(=O)(=O)c1ccc(CCC(=O)Nc2nnc(-c3ccncc3)[nH]2)cc1` [Example 126]: 4.52 to 4.82. Under `[2H]C([2H])(C(=O)Nc1nnc(-c2ccncc2)[nH]1)C([2H])([2H])c1ccc(Cl)nc1` [Example 8] stands greater than 5.30. Under `CC(=O)Nc1nnc(-c2ccncc2)[nH]1` [Example 144] stands less than 4.52. `Cc1c(-c2ccnnc2)n[nH]c1NC(=O)CCc1ccc(Cl)cc1` [Example 155] had a pIC50 greater than 5.30. Under `O=C(CCc1ccc(Cl)cc1)Nc1[nH]nc(-c2ccncc2)c1CO` [Example 194] stands greater than 5.30.

In turn, `O=C(CCc1ccc(C(F)(F)F)cn1)Nc1nnc(-c2ccncc2)[nH]1` [Example 85] gave a pIC50 of 4.82 to 5.30. Next, `N#Cc1ccc(CCC(=O)Nc2cc(-c3ccncc3)n[nH]2)cc1` [Example 47]: greater than 5.30; `[2H]C([2H])(C(=O)Nc1[nH]nc(-c2ccncc2)c1C)C([2H])([2H])c1ccc(Cl)cc1` [Example 170]: greater than 5.30. Take `O=C(CCc1ccc(Cl)nc1)Nc1cc(-c2ccncc2)[nH]n1` [Example 55]: the pIC50 is greater than 5.30. Next, `O=C(CCc1ccc2[nH]ncc2c1)Nc1nnc(-c2ccncc2)[nH]1` [Example 49]: less than 4.52; `Cc1c(-c2ccncc2)n[nH]c1NC(=O)CCc1ccc(C(F)(F)F)nc1` [Example 261]: greater than 5.30. Under `Cc1cc(-c2n[nH]c(NC(=O)CCc3ccc(Cl)cc3)n2)ccn1` [Example 42] stands less than 4.52; under `Cc1c(-c2ccncc2)nn(C)c1NC(=O)CCc1ccc(Cl)nc1` [Example 287], greater than 5.30. For `O=C(Nc1nnc(-c2ccncc2)[nH]1)N[C@H]1CCOc2cc(Cl)ncc21` [Example 277], the pIC50 is greater than 5.30.

In turn, `O=C(CCc1ccc(Cl)c(F)c1)Nc1nnc(-c2ccncc2)[nH]1` [Example 45] gave a pIC50 greater than 5.30. For `O=C(CCc1c(F)c(F)c(F)c(F)c1F)Nc1nnc(-c2ccncc2)[nH]1` [Example 118], the pIC50 was greater than 5.30.

As for `O=C(CCc1ccc(Cl)cc1)Nc1nnc(-c2ccncc2)o1` [Example 100], the pIC50 is less than 4.52. Next, `O=C(CCc1ccc(Cl)cc1)Nc1cc(-c2ccncc2-c2ccccc2)n[nH]1` [Example 299]: greater than 5.30; `O=C(Nc1nnc(-c2ccncc2)[nH]1)[C@H]1C[C@H](c2ccc(Cl)cc2)C1` [Example 22]: greater than 5.30. Under `O=C(CCc1ccccc1Cl)Nc1nnc(-c2ccncc2)[nH]1` [Example 138] stands greater than 5.30; under `O=C(CCc1ccc(Cl)cc1)Nc1[nH]nc(-c2ccncc2)c1C1CC1` [Example 227], greater than 5.30. `O=C(CC1CCc2ccccc21)Nc1nnc(-c2ccncc2)[nH]1` (stereo not drawn) [Example 117] gave a pIC50 greater than 5.30. Regarding `O=C(CCc1ccc(C(F)(F)F)s1)Nc1cc(-c2ccncc2)n[nH]1` [Example 2], the pIC50 is greater than 5.30.

In the case of `O=C(CN1C(=O)COc2cc(Cl)ccc21)Nc1nnc(-c2ccncc2)[nH]1` [Example 39], the pIC50 was less than 4.52. On to `O=C(CCc1ccc(F)c(F)c1)Nc1cc(-c2ccncc2)n[nH]1` [Example 17], for which the pIC50 was greater than 5.30. Compound `O=C(CCc1ccc(Cl)cc1)Nc1cc(-c2ccnnc2)[nH]n1` [Example 40] had a pIC50 greater than 5.30. Next, `O=C(Cc1c[nH]c2cc(Cl)ccc12)Nc1nnc(-c2ccncc2)[nH]1` [Example 35]: 4.82 to 5.30; `C[C@H](CC(=O)Nc1nnc(-c2ccncc2)[nH]1)c1ccccc1` [Example 94]: 4.52 to 4.82. Under `O=C(CCc1ccc(Cl)cc1)Nc1nc(-c2ccncc2)c[nH]1` [Example 20] stands greater than 5.30; under `O=C(COc1ccccc1)Nc1nnc(-c2ccncc2)[nH]1` [Example 145], less than 4.52; under `Cc1c(-c2ccnnc2)n[nH]c1NC(=O)CCc1ccc(Cl)c(F)c1` [Example 154], greater than 5.30. Next, `Cc1c(-c2ccncc2F)n[nH]c1NC(=O)CCc1ccc(Cl)nc1` [Example 314]: greater than 5.30; `Cc1c(-c2ccncc2)n[nH]c1NC(=O)CCc1ccc(F)c(F)c1` [Example 268]: greater than 5.30; `O=C(CCCc1ccccc1)Nc1nnc(-c2ccncc2)[nH]1` [Example 142]: 4.82 to 5.30. Regarding `Cc1[nH]c(NC(=O)CCc2ccc(Cl)nc2)nc1-c1ccncc1` [Example 250], the pIC50 was greater than 5.30.

Take `O=C(C[C@H]1CCOc2cc(Cl)ccc21)Nc1cc(-c2ccncc2)n[nH]1` [Example 212]: the pIC50 is greater than 5.30.

For the compound `O=C(CCc1ccc(Cl)c(Br)c1)Nc1nnc(-c2ccncc2)[nH]1` [Example 10], the pIC50 was greater than 5.30. The compound `O=C(CCc1ccc(C(F)(F)F)nc1)Nc1nnc(-c2ccncc2)[nH]1` [Example 86] gave a pIC50 greater than 5.30.

Compound `Cc1c(-c2ccncc2)n[nH]c1NC(=O)CCc1ccc(Cl)s1` [Example 202] showed a pIC50 greater than 5.30. As for `[2H]C([2H])(C(=O)Nc1cc(-c2ccncc2)n[nH]1)C([2H])([2H])c1ccc(Cl)cc1` [Example 162], the pIC50 is greater than 5.30. In turn, `N#Cc1c(-c2ccncc2F)n[nH]c1NC(=O)CCc1ccc(Cl)cc1` [Example 325] had a pIC50 greater than 5.30. Under `O=C(CCc1ccc(C(F)(F)F)cc1)Nc1nnc(-c2ccncc2)[nH]1` [Example 124] stands greater than 5.30; under `O=C(Nc1nnc(-c2ccncc2)[nH]1)[C@@H]1CCc2ccccc2C1` [Example 89], 4.82 to 5.30. Next, `CC1(c2c(-c3ccncc3)n[nH]c2NC(=O)CCc2ccc(Cl)nc2)CC1` [Example 310]: greater than 5.30; `O=C(Nc1nnc(-c2ccncc2)[nH]1)NC1CCOc2nc(Cl)ccc21` (stereo not drawn) [Example 184]: 4.82 to 5.30. Under `O=C(C[C@H]1CCOc2cc(Cl)ncc21)Nc1nnc(-c2ccncc2)[nH]1` [Example 235] stands 4.82 to 5.30; under `O=C(CC1CNc2cc(Cl)ccc21)Nc1nnc(-c2ccncc2)[nH]1` (stereo not drawn) [Example 283], greater than 5.30. Compound `Cc1c(-c2ccncc2)n[nH]c1NC(=O)CCc1ccc(Cl)cc1` [Example 18] showed a pIC50 greater than 5.30. Next, `O=C(Nc1cc(-c2ccnnc2)n[nH]1)[C@H]1C[C@H](c2ccc(Cl)cc2)C1` [Example 197]: greater than 5.30; `O=C(Nc1nnc(-c2ccncc2)[nH]1)[C@@H]1C[C@@H]1c1ccccc1` [Example 103]: 4.52 to 4.82. Next, `COCc1c(-c2ccncc2)n[nH]c1NC(=O)CCc1ccc(Cl)cc1` [Example 284]: greater than 5.30. Next, `O=C(Cc1coc2cc(Cl)ccc12)Nc1nnc(-c2ccncc2)[nH]1` [Example 295]: greater than 5.30. Compound `CCc1c(-c2ccncc2)n[nH]c1NC(=O)CCc1ccc(Cl)nc1` [Example 219] gave a pIC50 greater than 5.30. Under `O=C(CCc1ccc(Cl)nc1)Nc1[nH]nc(-c2ccncc2)c1Cl` [Example 271] stands greater than 5.30; under `[2H]C([2H])(C(=O)Nc1cc(-c2ccncc2)n[nH]1)C([2H])([2H])c1ccc(Cl)nc1` [Example 9], greater than 5.30; under `Cc1c(-c2ccncc2)n[nH]c1NC(=O)[C@@H](N)Cc1ccc(Cl)cc1` [Example 201], greater than 5.30. Turning to `Cc1c(-c2ccncc2)n[nH]c1NC(=O)CCc1nc(C2CC2)no1` [Example 251], the pIC50 was 4.82 to 5.30. Next, `O=C(CC1COCc2ccccc21)Nc1nnc(-c2ccncc2)[nH]1` (stereo not drawn) [Example 73]: 4.82 to 5.30; `O=C(C[C@@H]1CCc2ccccc21)Nc1nnc(-c2ccncc2)[nH]1` [Example 67]: greater than 5.30.
